Reference: ChEMBL document CHEMBL6092179, “Discovery of CLKs inhibitors for the treatment of non-small cell lung cancer” (Eur J Med Chem, 2024)
The source made the active and inactive calls. No cut-off for these calls is given here.

How the values were obtained:
[1] = molecular target: T1, Dual specificity protein kinase CLK3 (Homo sapiens, UniProt P49761); experiment: Inhibition of CLK3 (unknown origin) by ADP-Glo assay
Target sequence in this assay (P49761 whole entry): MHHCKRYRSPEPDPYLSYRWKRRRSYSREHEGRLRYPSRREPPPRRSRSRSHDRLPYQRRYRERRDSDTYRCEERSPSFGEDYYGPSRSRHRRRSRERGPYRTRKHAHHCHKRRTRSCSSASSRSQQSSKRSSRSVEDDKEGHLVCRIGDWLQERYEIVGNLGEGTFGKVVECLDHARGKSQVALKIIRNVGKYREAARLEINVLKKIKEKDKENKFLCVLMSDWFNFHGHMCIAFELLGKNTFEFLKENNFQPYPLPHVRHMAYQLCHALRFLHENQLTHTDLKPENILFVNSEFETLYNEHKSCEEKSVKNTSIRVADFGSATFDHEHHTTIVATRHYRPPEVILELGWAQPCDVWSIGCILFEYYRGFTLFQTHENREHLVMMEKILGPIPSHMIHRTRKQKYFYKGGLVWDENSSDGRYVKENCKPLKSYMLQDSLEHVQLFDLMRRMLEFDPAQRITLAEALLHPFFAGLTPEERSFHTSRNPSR

[2] = molecular target: T2, Dual specificity protein kinase CLK1 (Homo sapiens, UniProt P49759); experiment: Inhibition of CLK1 (unknown origin) by ADP-Glo assay
Target sequence in this assay (P49759 whole entry): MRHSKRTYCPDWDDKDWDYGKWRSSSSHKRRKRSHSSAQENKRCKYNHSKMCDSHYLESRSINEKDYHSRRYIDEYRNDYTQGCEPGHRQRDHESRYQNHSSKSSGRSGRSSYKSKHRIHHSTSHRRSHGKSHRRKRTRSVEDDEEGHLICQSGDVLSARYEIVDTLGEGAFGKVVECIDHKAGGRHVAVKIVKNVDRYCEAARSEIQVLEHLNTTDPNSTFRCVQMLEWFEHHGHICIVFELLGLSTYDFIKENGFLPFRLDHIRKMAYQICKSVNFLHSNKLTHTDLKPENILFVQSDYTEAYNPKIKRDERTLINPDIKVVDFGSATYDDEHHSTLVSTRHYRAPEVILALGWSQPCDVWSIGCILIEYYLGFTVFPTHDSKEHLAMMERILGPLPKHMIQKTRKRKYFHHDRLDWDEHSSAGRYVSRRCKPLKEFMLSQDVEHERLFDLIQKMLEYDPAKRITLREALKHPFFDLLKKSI

[3] = molecular target: T2, Dual specificity protein kinase CLK1; experiment: Inhibition of CLK in human NCI-H1299 cells assessed as downregulation of SRSF6 phosphorylation at 0.1 to 1 uM incubated for 1 hr by Western blotting analysis; type: cell-based; conditions: dose 0.1-1 µM
Target sequence in this assay (P49759 whole entry, looked up): as the sequence (P49759 whole entry) above

[4] = molecular target: T2, Dual specificity protein kinase CLK1; experiment: Inhibition of CLK1 (unknown origin) at 100 nM by ADP-Glo assay relative to control
Target sequence in this assay (P49759 whole entry, looked up): as the sequence (P49759 whole entry) above

[5] = molecular target: T1, Dual specificity protein kinase CLK3; experiment: Inhibition of CLK3 (unknown origin) at 100 nM by ADP-Glo assay relative to control
Target sequence in this assay (P49761 whole entry, looked up): as the sequence (P49761 whole entry) above

[6] = molecular target: Dual specificity protein kinase CLK4 (Homo sapiens, UniProt Q9HAZ1); experiment: Inhibition of CLK4 (unknown origin) at 100 nM by ADP-Glo assay relative to control
Dual specificity protein kinase CLK4, sequence (Q9HAZ1 whole entry, looked up): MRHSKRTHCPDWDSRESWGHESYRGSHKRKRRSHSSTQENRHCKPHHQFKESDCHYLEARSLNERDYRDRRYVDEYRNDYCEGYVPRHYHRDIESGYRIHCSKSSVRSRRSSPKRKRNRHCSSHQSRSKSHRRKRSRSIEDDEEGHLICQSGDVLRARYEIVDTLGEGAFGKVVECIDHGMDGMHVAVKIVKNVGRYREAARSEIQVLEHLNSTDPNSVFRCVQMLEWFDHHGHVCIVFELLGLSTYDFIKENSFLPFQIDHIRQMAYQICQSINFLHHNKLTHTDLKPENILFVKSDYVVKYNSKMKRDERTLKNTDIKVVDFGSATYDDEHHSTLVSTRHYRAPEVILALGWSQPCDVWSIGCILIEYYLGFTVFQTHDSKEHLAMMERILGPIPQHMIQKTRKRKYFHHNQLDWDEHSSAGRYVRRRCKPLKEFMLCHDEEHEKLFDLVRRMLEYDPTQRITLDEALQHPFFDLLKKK

[7] = molecular target: Dual specificity tyrosine-phosphorylation-regulated kinase 1B (Homo sapiens) (UniProt Q9Y463); experiment: Inhibition of DYRK1B (unknown origin) at 100 nM by ADP-Glo assay relative to control
Dual specificity tyrosine-phosphorylation-regulated kinase 1B (Homo sapiens), sequence (Q9Y463 whole entry, looked up): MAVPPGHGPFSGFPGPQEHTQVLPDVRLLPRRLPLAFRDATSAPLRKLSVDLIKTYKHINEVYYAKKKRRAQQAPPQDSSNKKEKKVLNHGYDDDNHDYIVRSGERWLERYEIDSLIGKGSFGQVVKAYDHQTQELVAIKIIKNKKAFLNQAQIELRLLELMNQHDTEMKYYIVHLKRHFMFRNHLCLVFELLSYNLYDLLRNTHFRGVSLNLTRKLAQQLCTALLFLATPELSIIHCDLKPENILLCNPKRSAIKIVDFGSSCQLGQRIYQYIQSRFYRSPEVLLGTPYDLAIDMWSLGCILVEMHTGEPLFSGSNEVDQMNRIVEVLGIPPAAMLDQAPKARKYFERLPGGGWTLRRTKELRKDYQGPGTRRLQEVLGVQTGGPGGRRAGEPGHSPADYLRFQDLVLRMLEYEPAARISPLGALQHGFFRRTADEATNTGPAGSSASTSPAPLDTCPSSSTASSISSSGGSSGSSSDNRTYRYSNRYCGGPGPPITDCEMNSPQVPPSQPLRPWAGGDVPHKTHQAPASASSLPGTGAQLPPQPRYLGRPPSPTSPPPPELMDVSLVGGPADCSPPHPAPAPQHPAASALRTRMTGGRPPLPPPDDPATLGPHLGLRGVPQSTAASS

[8] = molecular target: Homeodomain-interacting protein kinase 1 (Homo sapiens) (UniProt Q86Z02); experiment: Inhibition of HIPK1 (unknown origin) at 100 nM by ADP-Glo assay relative to control
Homeodomain-interacting protein kinase 1 (Homo sapiens), sequence (Q86Z02 whole entry, looked up): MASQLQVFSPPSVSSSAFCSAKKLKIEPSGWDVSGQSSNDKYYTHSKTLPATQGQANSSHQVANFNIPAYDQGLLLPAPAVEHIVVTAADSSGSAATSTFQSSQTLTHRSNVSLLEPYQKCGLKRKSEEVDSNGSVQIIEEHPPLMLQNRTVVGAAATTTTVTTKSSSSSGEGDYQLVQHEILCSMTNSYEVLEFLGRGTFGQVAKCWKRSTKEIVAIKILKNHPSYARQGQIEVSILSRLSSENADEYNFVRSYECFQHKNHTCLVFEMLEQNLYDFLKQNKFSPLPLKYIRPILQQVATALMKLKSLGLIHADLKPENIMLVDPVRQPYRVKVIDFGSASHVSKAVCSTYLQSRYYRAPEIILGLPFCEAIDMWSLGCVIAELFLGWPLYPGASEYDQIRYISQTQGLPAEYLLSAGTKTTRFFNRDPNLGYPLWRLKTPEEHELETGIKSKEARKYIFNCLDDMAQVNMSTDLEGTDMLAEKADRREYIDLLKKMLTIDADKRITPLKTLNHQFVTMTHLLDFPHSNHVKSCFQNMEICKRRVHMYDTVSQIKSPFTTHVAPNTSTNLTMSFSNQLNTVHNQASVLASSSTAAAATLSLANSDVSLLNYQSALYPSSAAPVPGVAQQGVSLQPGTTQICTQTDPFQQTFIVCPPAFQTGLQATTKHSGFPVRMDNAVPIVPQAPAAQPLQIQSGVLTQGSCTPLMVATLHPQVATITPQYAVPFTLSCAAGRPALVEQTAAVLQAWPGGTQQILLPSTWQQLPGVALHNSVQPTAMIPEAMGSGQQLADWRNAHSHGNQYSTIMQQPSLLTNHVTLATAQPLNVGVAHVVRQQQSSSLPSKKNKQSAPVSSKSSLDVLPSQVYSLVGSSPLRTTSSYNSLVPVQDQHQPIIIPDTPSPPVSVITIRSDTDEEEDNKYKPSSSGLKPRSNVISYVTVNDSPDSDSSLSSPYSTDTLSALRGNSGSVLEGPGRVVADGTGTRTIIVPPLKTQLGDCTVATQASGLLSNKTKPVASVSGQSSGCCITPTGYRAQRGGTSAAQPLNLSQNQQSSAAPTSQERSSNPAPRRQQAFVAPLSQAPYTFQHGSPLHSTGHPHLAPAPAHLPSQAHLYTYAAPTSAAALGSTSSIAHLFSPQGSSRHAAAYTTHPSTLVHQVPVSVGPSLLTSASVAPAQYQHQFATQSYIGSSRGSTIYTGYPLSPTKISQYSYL

NCI-H1299 [9] = experiment: Inhibition of colony formation in human NCI-H1299 cells incubated for 7 days by crystal violet staining based analysis; type: functional, cell-based; conditions: time 7.0 day
NCI-H1299 [10] = experiment: Induction of apoptosis in human NCI-H1299 cells assessed as viable cells at 0.25 uM incubated for 24 hrs by annexin V-FITC/PI staining based flow cytometric analysis (reference value: 95 %); type: functional; conditions: read-out: Activity
NCI-H1299 [11] = experiment: Induction of apoptosis in human NCI-H1299 cells assessed as viable cells at 1 uM incubated for 24 hrs by annexin V-FITC/PI staining based flow cytometric analysis (reference value: 95 %); type: functional; conditions: read-out: Activity
NCI-H1299 [12] = experiment: Induction of apoptosis in human NCI-H1299 cells assessed as viable cells at 2.5 uM incubated for 24 hrs by annexin V-FITC/PI staining based flow cytometric analysis (reference value: 95 %); type: functional; conditions: read-out: Activity
NCI-H1299 [13] = experiment: Induction of apoptosis in human NCI-H1299 cells assessed as early apoptotic cells at 0.1 uM incubated for 24 hrs by annexin V-FITC/PI staining based flow cytometric analysis (reference value: 0.49 %); type: functional
NCI-H1299 [14] = experiment: Induction of apoptosis in human NCI-H1299 cells assessed as early apoptotic cells at 0.25 uM incubated for 24 hrs by annexin V-FITC/PI staining based flow cytometric analysis (reference value: 0.49 %); type: functional
NCI-H1299 [15] = experiment: Induction of apoptosis in human NCI-H1299 cells assessed as early apoptotic cells at 0.5 uM incubated for 24 hrs by annexin V-FITC/PI staining based flow cytometric analysis (reference value: 0.49 %); type: functional
NCI-H1299 [16] = experiment: Induction of apoptosis in human NCI-H1299 cells assessed as early apoptotic cells at 2.5 uM incubated for 24 hrs by annexin V-FITC/PI staining based flow cytometric analysis (reference value: 0.49 %); type: functional
NCI-H1299 [17] = experiment: Induction of apoptosis in human NCI-H1299 cells assessed as late apoptotic cells at 0.1 uM incubated for 24 hrs by annexin V-FITC/PI staining based flow cytometric analysis (reference value: 2.23 %); type: functional
NCI-H1299 [18] = experiment: Induction of apoptosis in human NCI-H1299 cells assessed as late apoptotic cells at 0.25 uM incubated for 24 hrs by annexin V-FITC/PI staining based flow cytometric analysis (reference value: 2.23 %); type: functional
NCI-H1299 [19] = experiment: Induction of apoptosis in human NCI-H1299 cells assessed as late apoptotic cells at 2.5 uM incubated for 24 hrs by annexin V-FITC/PI staining based flow cytometric analysis (reference value: 2.23 %); type: functional
NCI-H1299 [20] = experiment: Induction of apoptosis in human NCI-H1299 cells assessed as necrotic cells at 0.1 uM incubated for 24 hrs by annexin V-FITC/PI staining based flow cytometric analysis (reference value: 2.28 %); type: functional
NCI-H1299 [21] = experiment: Induction of apoptosis in human NCI-H1299 cells assessed as necrotic cells at 0.25 uM incubated for 24 hrs by annexin V-FITC/PI staining based flow cytometric analysis (reference value: 2.28 %); type: functional
NCI-H1299 [22] = experiment: Induction of apoptosis in human NCI-H1299 cells assessed as necrotic cells at 2.5 uM incubated for 24 hrs by annexin V-FITC/PI staining based flow cytometric analysis (reference value: 2.28 %); type: functional
NCI-H1299 [23] = experiment: Induction of apoptosis in human NCI-H1299 cells at 0.1 to 2.5 uM incubated for 24 hrs by annexin V-FITC/PI staining based flow cytometric analysis relative to control; type: functional; conditions: dose 0.1-2.5 µM
NCI-H1299 [24] = experiment: Induction of apoptosis in human NCI-H1299 cells assessed as downregulation of MCL-1 expression at 0.1 to 1 uM incubated for 48 hrs by Western blotting analysis; type: functional, cell-based; conditions: dose 0.1-1 µM
NCI-H1299 [25] = experiment: Inhibition of Wnt pathway in human NCI-H1299 cells assessed as downregulation of beta-catenin phosphorylation at 0.1 to 1 uM incubated for 12 hrs by Western blotting analysis; type: cell-based; conditions: dose 0.1-1 µM
NCI-H1299 [26] = experiment: Induction of apoptosis in human NCI-H1299 cells assessed as downregulation of AKT expression incubated for 12 hrs by Western blotting analysis; type: functional, cell-based
NCI-H1299 [27] = experiment: Induction of apoptosis in human NCI-H1299 cells assessed as downregulation of mTOR expression incubated for 12 hrs by Western blotting analysis; type: functional, cell-based
NCI-H1299 [28] = experiment: Induction of apoptosis in human NCI-H1299 cells assessed as downregulation of ERK expression incubated for 48 hrs by Western blotting analysis; type: functional, cell-based
NCI-H1299 [29] = experiment: Inhibition of AKT phosphorylation in human NCI-H1299 cells at 0.1 to 1 uM incubated for 12 hrs by Western blotting analysis; type: cell-based; conditions: dose 0.1-1 µM
[30] = molecular target: Serine/threonine-protein kinase mTOR (Homo sapiens) (UniProt P42345); experiment: Inhibition of mTOR phosphorylation in human NCI-H1299 cells at 0.1 to 1 uM incubated for 12 hrs by Western blotting analysis; type: cell-based; conditions: dose 0.1-1 µM
NCI-H1299 [31] = experiment: Induction of autophagy in human NCI-H1299 cells assessed as effect on LC3II protein expression at 0.1 to 1 uM incubated for 48 hrs by Western blotting analysis; type: functional, cell-based; conditions: dose 0.1-1 µM
[32] = tested on: Osimertinib-resistant NCI-H1975 cell; experiment: cells; conditions: Homo sapiens, 48 h
Description: Antiproliferative activity against human Osimertinib-resistant NCI-H1975 cell assessed as inhibition of cell growth incubated for 48 hrs by MTT assay

NCI-H1975 = experiment: cells; conditions: Homo sapiens, NCI-H1975, 48 h
Description: Antiproliferative activity against human NCI-H1975 cells assessed as inhibition of cell growth incubated for 48 hrs by MTT assay

cells = conditions: Homo sapiens, Osimertinib-resistant HCC827AR cell, 48 h
Description: Antiproliferative activity against human Osimertinib-resistant HCC827AR cell assessed as inhibition of cell growth incubated for 48 hrs by MTT assay

HCC827 = experiment: cells; conditions: Homo sapiens, HCC827, 48 h
Description: Antiproliferative activity against human HCC827 cells assessed as inhibition of cell growth incubated for 48 hrs by MTT assay

A549 = experiment: cells; conditions: Homo sapiens, A549, 48 h
Description: Antiproliferative activity against human A549 cells assessed as inhibition of cell growth incubated for 48 hrs by MTT assay

NCI-H1299 [33] = experiment: cells; conditions: Homo sapiens, NCI-H1299, 48 h
Description: Antiproliferative activity against human NCI-H1299 cells assessed as inhibition of cell growth incubated for 48 hrs by MTT assay

SMILES: FC1(F)CCN(Cc2cncc(-c3ccc4[nH]nc(-c5nc(-c6ccco6)c(-c6ccco6)[nH]5)c4c3)c2)C1
- IC50 [1]: 0.0287 µM
- IC50 [2]: 0.0046 µM
- inhibition [3]: Active; Showed Stronger Inhibition Compared To Indazole 1
- inhibition [4]: 98.1%
- inhibition [5]: 103%
- inhibition [6]: 95%
- inhibition [7]: 84.4%
- inhibition [8]: 51.4%
- inhibition (NCI-H1299 [9]): Dose-dependent-effect
- viability at 0.25 µM (NCI-H1299 [10]): 92.1%
- viability at 1 µM (NCI-H1299 [11]): 84.3%
- viability at 2.5 µM (NCI-H1299 [12]): 82%
- Activity (NCI-H1299 [13]): 1.45%
- Activity (NCI-H1299 [14]): 3.57%
- Activity (NCI-H1299 [15]): 8.27%
- Activity (NCI-H1299 [16]): 9.7%
- Activity (NCI-H1299 [17]): 1.26%
- Activity (NCI-H1299 [18]): 2.55%
- Activity (NCI-H1299 [19]): 6.71%
- Activity (NCI-H1299 [20]): 1.1%
- Activity (NCI-H1299 [21]): 1.78%
- Activity (NCI-H1299 [22]): 1.6%
- Activity (NCI-H1299 [23]): 3.7%
- Activity (NCI-H1299 [24]): Active
- inhibition (NCI-H1299 [25]): Active
- Activity (NCI-H1299 [26]): Dose-dependent-effect
- Activity (NCI-H1299 [27]): Dose-dependent-effect
- Activity (NCI-H1299 [28]): Dose-dependent-effect
- inhibition (NCI-H1299 [29]): Active
- inhibition [30]: Active
- Activity (NCI-H1299 [31]): Active
- IC50 [32]: 0.21 µM
- IC50 (NCI-H1975): 0.15 µM
- IC50 (cells): 0.22 µM
- IC50 (HCC827): 0.16 µM
- IC50 (A549): 0.17 µM
- IC50 (NCI-H1299 [33]): 0.13 µM
